Test results: ChEMBL document CHEMBL3507680, “University of Dundee, Gates Library screen for HepG2 cell viability”

Assay: Human HepG2 cell viability assay in 384 well format
Assay type: toxicity, cell-based
Set-up: dose 125 nL, time 70.5 hour; concentration not given beside the values
Conditions: HepG2 cells, read-out: Inhibition

Compound	cytotoxicity at 70.5 h [%]
CCOCCN1CCN(Cc2cccc(C(=O)N(C)C)c2)CC1CC (stereo not drawn)	-6.73
O=C(NCc1ccccc1-n1cccn1)N1CCC(N2CCCC2)C1 (stereo not drawn)	-6.47
c1ccc(OCCN2CCc3c(ncn3C3CC3)C2)cc1	-4.85
COCCN1CCN(Cc2cccc(C(=O)N(C)C)c2)CC1	-4.26
Cc1cc(C)n(CC2CCCCN2C(=O)c2ccsc2)n1 (stereo not drawn)	-2.03
Cc1nn(C)c(C)c1CCC(=O)N1CCCC(n2cncn2)C1 (stereo not drawn)	-6.31
CCN(Cc1ccc2c(c1)OCO2)C(=O)Cn1cccnc1=O	-0.305
CCN(Cc1ccc2c(c1)OCCO2)C(=O)Cn1cccnc1=O	-5.36
CC(=O)NC1CCCN(C(=O)NCc2ccc(-n3cccn3)cc2)C1 (stereo not drawn)	-2.4
CCc1noc(C(C)N2CCN(C(=O)CN3CCOCC3)CC2)n1 (stereo not drawn)	0.684
CN1CCCN(C(=O)NCc2cccnc2-n2cccn2)CC1	-0.342
CCC1CCCN(C(=O)NCc2cccnc2-n2cccn2)C1 (stereo not drawn)	-4.16
CNC(=O)COc1ccc(CNCc2c(C)nn(C)c2N(C)C)cc1	-0.911
Cc1nn(-c2ccccc2)nc1C(=O)N1CCCC(n2cccn2)C1 (stereo not drawn)	-1.86
O=C(CN1CCCC(Cn2cncn2)C1)NCCCc1ccccc1 (stereo not drawn)	-2.31
O=C(CN1CCCC(Cn2cncn2)C1)NCCc1cccs1 (stereo not drawn)	0.827
Cc1ccc(CNC(=O)CN2CCOC(Cn3cncn3)C2)s1 (stereo not drawn)	-2.32
CCNc1cc2c(nn1)CCN(C(=O)c1cc3cc(C)ccc3o1)C2	5.36
CCc1nc(C2CCCN2C(=O)c2ccc3c(c2)[nH]c(=O)n3C)no1 (stereo not drawn)	2.37
Cc1nc(C2CCCN2C(=O)c2ccc3c(c2)nc(C)n3C)no1 (stereo not drawn)	3.45
O=S(=O)(CCN1CCc2c(ncn2C2CC2)C1)c1ccccc1	16.5
Cc1cccc(N2CCN(C(=O)NC(C)c3nncn3C)CC2)c1 (stereo not drawn)	20.1
Cc1cc(NC(=O)NCC2COc3ccccc3C2)no1 (stereo not drawn)	52
Cc1noc(C)c1C(=O)NCc1ccc(N2CCC(C)CC2)nc1	1.58

Compound	cytotoxicity at 70.5 h [%]
COc1ncccc1CNC(=O)NC(C)Cn1cccn1 (stereo not drawn)	-14.1
Cc1noc(C)c1CN(C)C(=O)c1ccc(C(F)(F)F)nc1	-0.00923
CCN1CCN(c2ccc(CNC(=O)c3cc(C)on3)cn2)CC1	-4.09
CC(Cn1cccn1)NC(=O)NCc1ccnc(OC2CCCC2)c1 (stereo not drawn)	-8.79
CC(Cn1cccn1)NC(=O)NCc1ccc(OC2CCCC2)nc1 (stereo not drawn)	19.5
Cc1ccc(OCCN(C)C(=O)NC(C)c2nncn2C)cc1 (stereo not drawn)	-5.04
CC(Cn1ccnc1)NC(=O)NCc1cccnc1OC1CCCC1 (stereo not drawn)	-8.81
CC(NC(=O)N1CCN(c2nccs2)CC1)c1nncn1C (stereo not drawn)	-7.23
O=C(NCCc1coc(-c2ccccc2)n1)NC1CC1	20.2
Cc1cnn(CC2CN(CC(=O)N(C)Cc3cnn(C)c3)CCO2)c1 (stereo not drawn)	-7.34
O=C(NCCc1coc(-c2ccc(F)cc2)n1)NC1CC1	-3.96
Cc1ccc(-c2nc(CCNC(=O)NC3CCC(O)CC3)co2)cc1 (stereo not drawn)	0.284
COc1ccc(C(=O)N2CCCS2(=O)=O)cc1	-5.25
Cc1ccc(-c2nc(CCNC(=O)NCC(C)(C)C(N)=O)co2)cc1	-0.0567
CCc1nc(C2CCCN2C(=O)c2cc[nH]n2)no1 (stereo not drawn)	3.06
COc1ccc(-c2noc(CN3CCCC3Cn3cccn3)n2)cc1 (stereo not drawn)	-1.01
Cc1cccc(-c2noc(CN3CCCCC3Cn3cncn3)n2)c1 (stereo not drawn)	-6.45
Cc1nnc(CN(C)C2CCN(Cc3nc4ccccc4n3C)C2)o1 (stereo not drawn)	-1.55
CCc1nc(C2CCCN2C(=O)c2cc(Cl)c[nH]2)no1 (stereo not drawn)	-2.89
Cc1nc(CC(=O)N2CCCC2Cn2cccn2)cs1 (stereo not drawn)	-5
Cc1cc(C2CCCN(C(=O)COc3cc(C)on3)C2)n[nH]1 (stereo not drawn)	-3.29
Cc1cc(NC(=O)CN2CCCC2c2noc(C)n2)n(C)n1 (stereo not drawn)	-5.38
CCc1nc(CN2CCCN(Cc3nnc(C4CC4)o3)CC2)no1	-5.98
Cc1nc(C)n(CC2CCCN(CCOc3ccccc3F)C2)n1 (stereo not drawn)	28.7

Compound	cytotoxicity at 70.5 h [%]
CCc1nccn1C1CCCN(C(=O)c2c(C)nsc2NC)C1 (stereo not drawn)	-7.79
Cn1nc2c(cc1=O)CN(Cc1nc(-c3ccsc3)no1)CC2	-19.7
Cc1ccccc1-c1noc(CN2CCc3nn(C)c(=O)cc3C2)n1	-11.6
CCc1nc(C2CCCN2CC(=O)Nc2cc(C)nn2C)no1 (stereo not drawn)	-15.1
CC(Cn1cccn1)NC(=O)c1cccs1 (stereo not drawn)	-9.89
O=C(NCCCN1CCc2ccccc2C1)c1ccccc1Cl	-7.27
COc1ccc(CNc2cnn(C)c(=O)c2Cl)cc1	1.82
Cn1ccc(C(=O)NCc2ccc(N3CCOCC3)nc2)cc1=O	-12
Cn1cc(C(=O)NCc2ccc(N3CCCC3)nc2)ccc1=O	-8.81
CCCC(C#N)NC(=O)c1cc(Br)c2c(c1)OCCO2 (stereo not drawn)	-11.4
CC(Cc1cccs1)NC(=O)CCn1cccn1 (stereo not drawn)	-0.682
OC(CNCCn1cccn1)c1ccc(C(F)(F)F)cc1 (stereo not drawn)	-4.94
OC(CNCCn1cccn1)c1cccc(Br)c1 (stereo not drawn)	-8.75
COCCC(C)NC(=O)c1cc(Br)c2c(c1)OCCO2 (stereo not drawn)	-10.3
CCC(C)NC(=O)c1cc(Br)c2c(c1)OCCO2 (stereo not drawn)	-1.67
Cc1cc(OCC(=O)N2CCCC(c3nc(C)c(C)s3)C2)no1 (stereo not drawn)	11.5
Cc1cc(OCC(=O)N2CCCC(c3nccs3)C2)no1 (stereo not drawn)	-2.96
Cc1cn2c(n1)CCC(NC(=O)c1oc(Br)cc1C)C2 (stereo not drawn)	-11.5
CNc1snc(C)c1C(=O)N1CCCC(n2nc(C)nc2C)C1 (stereo not drawn)	-10.6
Cc1cn2c(n1)CCC(NC(=O)c1[nH]ncc1Br)C2 (stereo not drawn)	-9.45
Cc1nc(C2CCCN2CC(=O)Nc2cc(C(C)(C)C)nn2C)no1 (stereo not drawn)	-6.05
Cn1ncc(NCc2cccc(OCC(F)(F)F)c2)c(Cl)c1=O	18.3
CCn1cnnc1CNC(=O)N1CCC(C)CC1	16.5
O=C(CN1CCOC(CNc2cccnn2)C1)NCc1ccccn1 (stereo not drawn)	19

Compound	cytotoxicity at 70.5 h [%]
COc1c(C2CCCN2Cc2noc(C(C)C)n2)c(C)nn1C (stereo not drawn)	28.5
COc1cc(C)nc(N2CCN(C(=O)CNC(C)(C)C)CC2)n1	-15.6
O=C1C(NCc2nnc3n2CCCC3)CCN1c1ccccc1 (stereo not drawn)	-5.59
CC(C)(C)c1n[nH]c(C2CN(C(=O)c3ccsc3)CCO2)n1 (stereo not drawn)	-16.5
CC(C)(C)c1n[nH]c(C2CN(C(=O)CCc3cscn3)CCO2)n1 (stereo not drawn)	-21.1
CCn1nc2c(cc1=O)CN(Cc1nc(CCOC)no1)CC2	-16
CCOc1cc(CNC(=O)N2CCC(Cc3cnn(C)c3)C2)ccn1 (stereo not drawn)	-10.6
Cc1cc(C)n(CC2CCCN2CCc2ccncc2)n1 (stereo not drawn)	17.9
Cc1cnn(CC2CCCN2C(=O)c2ccc(OC(C)C)nc2)c1 (stereo not drawn)	-15
O=C1C(NCc2nnc3n2CCCC3)CCN1CC(F)(F)F (stereo not drawn)	20.6
Cc1nccn1C1CCCN(C(=O)COCC(F)(F)F)C1 (stereo not drawn)	-7.9
COc1cccc(CCNCc2c(C)nn(C)c2N(C)C)c1	-4.91
COc1cc(CNCc2c(C(C)C)nn(C)c2N(C)C)ccn1	-5.93
Cc1cc(C)n(CC2CN(Cc3cscn3)CCO2)n1 (stereo not drawn)	-4.76
CC(C)c1nn(C)c(N(C)C)c1CNCc1ccccc1CN(C)C	-0.417
COCc1cccc(CNC(=O)CN2CCCC2c2noc(C)n2)c1 (stereo not drawn)	-13.1
Cc1noc2ncc(C(=O)N(CC3CCOC3)C3CC3)cc12 (stereo not drawn)	-6.78
Cc1cc(C)c(CNC(=O)NCC2CCCN2C)c(=O)[nH]1 (stereo not drawn)	19
Cc1cc(C)c(CNC(=O)N(C)CC2CCCCO2)c(=O)[nH]1 (stereo not drawn)	-3.49
Cc1cc(C)c(CNC(=O)N2CCN(c3ncccn3)CC2)c(=O)[nH]1	0.0542
Cc1cc(C)c(CNC(=O)NCC2CCCO2)c(=O)[nH]1 (stereo not drawn)	26.7
Cc1cnn(CC2CN(CC(=O)Nc3nnc(C)s3)CCO2)c1 (stereo not drawn)	-9.05
Cc1ccc(NC2CCN(C(=O)c3cc[nH]n3)CC2)nn1	-11
CC(C)c1ccc(C(O)Cn2c(=O)c(C#N)cn(C3CC3)c2=O)cc1 (stereo not drawn)	-3.45

Compound	cytotoxicity at 70.5 h [%]
c1ncn(CC2CCCCN2Cc2noc(C3CC3)n2)n1 (stereo not drawn)	11.3
Cc1ccc(C(=O)Nc2cn[nH]c2)cc1C	-1.12
Cc1nc(C)c(CC(=O)Nc2nnc(C)s2)c(=O)[nH]1	0.383
CCn1cc(NC(=O)NCC(c2cccc(F)c2)N(C)C)cn1 (stereo not drawn)	-4.54
Cc1ncsc1C(=O)N(C)Cc1ccncc1	28.4
COc1ccc(C)cc1CNCc1ccc(-n2nc(C)cc2C)nc1	5.93
Cc1ccc(CNCc2ccc(-n3nc(C)cc3C)nc2)cc1	-6.83
Cc1ccc(C)c(OC2CCN(C(=O)c3ccc(O)nc3)CC2)c1	2.43
Cc1ccc(C(=O)N2CCC(Oc3ccc(F)cc3F)CC2)c(=O)[nH]1	31.6
CC(C)(CNC(=O)CCOc1cccc(F)c1)C(N)=O	2.27
CCCN(CC1COc2ccccc2O1)C(=O)CCn1cncn1 (stereo not drawn)	-1.87
COc1cccc(COCC(=O)N2CCC(CC(N)=O)CC2)c1	4.02
Cc1cn2c(n1)CCC(NC(=O)c1ccc(CS(C)(=O)=O)o1)C2 (stereo not drawn)	-2.86
c1ccc(-c2nccc(CNCC3CCCN3c3cccnn3)n2)cc1 (stereo not drawn)	39.7
Cc1nc(CNCC2CCCN2c2cccnn2)cs1 (stereo not drawn)	2.56
Cn1cc(Cl)cc1C(=O)N1CCCN(Cc2cccs2)CC1	4.57
N#CC1(C(=O)NCCCNc2ccc(C(F)(F)F)cn2)CCCC1	5.77
Cc1cnn(CCCNC(=O)N2CCCCC(N3CCCC3)C2)c1 (stereo not drawn)	-6.01
CCN(CC)C(=O)CN(C)C1CCc2ccccc21 (stereo not drawn)	-3.62
CCOCC(O)CN1CCN(C(=O)Cc2ccc3c(c2)CCO3)CC1 (stereo not drawn)	0.715
O=C(Nc1cnn(CCN2CCOCC2)c1)c1ccccc1O	0.705
CCn1c(CN2CCCN(C(=O)OC)CC2)nc2c(F)cccc21	18.8
